{"source": "patent US6835370B2", "about": "“Diagnosis and treatment of malignant neoplasms” (Rhode Island Hospital, priority 1999, dated 2004)", "key": {"[1]": {"tested_on": "human AAH cDNA (pHAAH)", "experiment": "in vitro cell free transcription translation assay (TNT Quick Coupled System)", "type": "biochemical", "details": "100× or 1000× excess oligonucleotide; rabbit reticulocyte lysate, [35S] methionine, SDS-PAGE autoradiography", "protocol": "Using an in vitro cell free transcription translation assay (TNT Quick Coupled System), the human AAH cDNA (pHAAH) was used to synthesize AAH protein. […] The translated product was labeled with [^35S] methionine in the presence of reaction buffer, RNA polymerase, amino acid mixture, and ribonuclease inhibitor (RNAsin). The products were analyzed by SDS-PAGE followed by autoradiography. A luciferase (Luc) expressing plasmid was used as a positive control. In the second and third lanes, synthesis of the ˜85 kD AAH protein is shown (AAH, arrow) using 1 or 2 micrograms of plasmid as the template and the T7 DNA-dependent RNA polymerase primer/promoter to generate mRNA."}, "[2]": {"tested_on": "AAH", "experiment": "MICE assay of AAH immunoreactivity in transfected cells", "type": "cell-based", "details": "relative to cells transfected with random oligonucleotide", "protocol": "Inhibition of HAAH gene expression is enhanced by contacting cells with a phosphorothioate derivative of the HAAH antisense. Phosphorothioate antisense derivatives are made using methods well known in the art. The MILQ assay was used to measure gene expression resulting from antisense oligonucleotide gene delivery. Cells were contacted with AAH Location-6 antisense DNA, and AAH protein expression was measured using methods known in the art, e.g., the MICE assay (de la Monte, et al, 1999, Biotechniques), to determine if it was inhibited by hybridization with the oligonucleotide. The MICE assay is used to measure inimunoreactivity in cultured cells without the need to extract proteins or perform gel electrophoresis. This assay is more sensitive than Western blot analysis. Using the MICE assay, AAH immunoreactivity was assessed in cells transfected with non-relevant (random) oligonucleotide sequences, specific antisense oligonucleotides (Location-6), and a phosphorothioate Location-6 antisense oligonucleotide."}, "[3]": {"tested_on": "PNET2 cells", "experiment": "Trypan blue dye exclusion viability", "type": "cell-based, Human", "details": "24 hours, sub-lethal concentrations of H2O2", "protocol": "FIGS. 5A-D are bar graphs showing increased AAH expression in PNET2 (FIGS. 5A, 5C) and SH-Sy5y (FIG. 5B) cells treated with retinoic acid (FIGS. 5A, 5B) or phorbol ester myristate (PMA; FIG. 5C) to induce neurite outgrowth as occurs during tumor cell invasion. The cells were treated with 10 μM retinoic acid or 100 nM PMA for 0, 1, 2, 3, 4, or 7 days. Cell lysates were analyzed by Western blot analysis using an HAAH-specific monoclonal antibody to detect the 85 kDa AAH protein. The levels of immunoreactivity were measured by volume densitometry (arbitrary units). The graphs indicate the mean±S.D. of results obtained from three separate experiments. In FIG. 5D, PNET2 cells were treated for 24 hours with sub-lethal concentrations of H2O2 to induce neurite retraction. […] Similar results were obtained for SH-Sy5y cells.\nTo examine the effect of AAH expression on neurite retraction, PNET2 and SH-Sy5y cells were treated with low concentrations (8-40 μM) of H2O2."}, "[4]": {"tested_on": "AAH in PNET2 cells", "experiment": "Western blot of AAH expression in treated PNET2 cells", "type": "cell-based, Human", "protocol": "Studies were conducted to determine whether AAH expression was modulated with neurite (filopodia) extension (sprouting) as occurs with invasive growth of malignant neoplasms. Human PNET2 CNS-derived and SH-Sy5y neuroblastoma cells were cultured and stimulated for 0, 1, 2, 3, 5, or 7 days with 100 nM phorbol […] or 10 μM retinoic acid to induce sprouting. […] For both studies, AAH expression was evaluated by Western blot analysis using the an HAAH-specific antibody.\n(§1) Cells grown in 10 cm^2 dishes were lysed and homogenized in a standard radioimmunoprecipitation assay RIPA buffer containing protease and phosphatase inhibitors. The supernatants collected after centrifuging the samples at 12,000×g for 10 minutes to remove insoluble debris were used for Western blot analysis. Protein concentration was measured using the BCA assay (Pierce Chemical Co, Rockford, Ill.). Samples containing 60 μg of protein were electrophoresed in sodium dodecyl sulfate polyacrylamide gels (SDS-PAGE) and subjected to Western blot analysis. Replicate blots were probed with the individual antibodies. Immunoreactivity was detected with horseradish peroxidase conjugated IgG (Pierce Chemical Co, Rockford, Ill.) and enhanced chemiluminescence reagents. To quantify the levels of protein expression, non-saturated autoradiographs were subjected to volume densitometry using NIH Image software, version 1.6. […]"}, "[5]": {"tested_on": "AAH in SH-Sy5y cells", "experiment": "Western blot of AAH expression in treated SH-Sy5y cells", "type": "cell-based, Human", "details": "up to 7 days, FIG. 5B", "protocol": "Studies were conducted to determine whether AAH expression was modulated with neurite (filopodia) extension (sprouting) as occurs with invasive growth of malignant neoplasms. Human PNET2 CNS-derived and SH-Sy5y neuroblastoma cells were cultured and stimulated for 0, 1, 2, 3, 5, or 7 days with 100 nM phorbol […] or 10 μM retinoic acid to induce sprouting. In addition, to examine the effects of neurite retraction on AAH expression, subconfluent cultures were treated for 24 hours with low concentrations (10-40 μM) of H2O2. For both studies, AAH expression was evaluated by Western blot analysis using the an HAAH-specific antibody.\nas §1, with “Samples containing 60 μg of protein were electrophoresed in sodium dodecyl sulfate polyacrylamide gels (SDS-PAGE) and subjected to Western blot analysis. Replicate blots were probed with the individual antibodies.” left out"}, "[6]": {"tested_on": "HAAH gene expression", "experiment": "insulin stimulation of HAAH gene expression in FOCUS HCC cells", "type": "cell-based, human", "details": "20 and 40 U insulin, serum free medium, after 16 hr of serum starvation", "source_text": "IRS-1 mediated signal transduction pathway is activated in 95% of human HCC tumors compared to the adjacent uninvolved liver tissue. HAAH is a downstream effector gene involved in this signal transduction pathway. […] A high level of HAAH protein is expressed in HCC and cholangiocarcinoma compared to normal hepatocytes and bile ducts."}}, "data": [{"molecule": "5′ ATCATGCAATGGCCCAGCGTAA 3′ (sense ATCATGCAATGGCCCAGCGTAA; listed as DNA, chemistry not given here) [sense oligonucleotide, sense oligonucleotide beginning at Location-3, control]", "values": [{"measurement": "inhibition of AAH protein synthesis", "setting": "[1]", "result": "no effect"}]}, {"molecule": "5′ TTACGCTGGGCCATTGCACG 3′ (antisense TTACGCTGGGCCATTGCACG; listed as DNA, chemistry not given here) [Location-6, AAH antisense oligonucleotide (20 mer)]", "values": [{"measurement": "AAH immunoreactivity", "setting": "[2]", "result": "reduced levels"}]}, {"molecule": "OO", "note": "[H2O2]", "values": [{"measurement": "Viability of the cells", "setting": "[3]", "result": "greater than 90%"}, {"measurement": "levels of AAH protein", "setting": "[4]; 24 hours, 8-40 μM H2O2, FIG. 5D", "result": "dose-dependent reductions"}]}, {"molecule": "CCCCCCCCCCCCCC(=O)O[C@@H]1[C@@H](C)[C@@]2(O)[C@@H](C=C(CO)C[C@]3(O)C(=O)C(C)=C[C@@H]23)[C@@H]2C(C)(C)[C@]12OC(C)=O", "note": "[PMA, phorbol ester myristate]", "values": [{"measurement": "RA- or PMA-stimulated increases in AAH expression", "setting": "[5]", "result": "highest after 7 days of treatment"}, {"measurement": "increase in levels of AAH protein", "setting": "[4]; 24 hours after exposure, 10 μM retinoic acid or 100 nM PMA", "result": "at least two-fold"}]}, {"molecule": "Insulin: insulin used to stimulate FOCUS HCC cells", "values": [{"measurement": "HAAH gene expression", "setting": "[6]", "result": "upregulation"}]}]}
